US6770587B1, “Chain extended functionalized initiators and methods of preparing and using the same” (FMC Corporation, priority 2000, dated 2004)

Columns and labels:
[1] = non-chain extended initiator, cyclohexane (background statement); cited from earlier work
[2] = Storage of initiator solutions, observation of precipitate or crystals; assay type: physicochemical
Method: The sample bottle was placed in a refrigerator at −1° C. for twenty-four hours.
(§1) The sample bottle was placed in a refrigerator at −1° C. for twenty-four hours. […] This solution was transferred to a dry, one-liter pear shaped flask. A majority of the solvent was removed on the rotary evaporator, at full vacuum, with a bath temperature of 40° C. This afforded a dark amber oil, yield=154.85 grams.
as §1, with “one liter” for “one-liter”, “yield=230.07” for “yield=154.85”
The sample bottle was placed in a refrigerator at −2° C. for forty-eight hours.
This solution was transferred to a dry, 500 ml., pear shaped flask. A majority of the solvent was removed on the rotary evaporator, at full vacuum, with a bath temperature of 40° C. This afforded a dark amber oil, yield=104.90 grams. Heptane, 6.11 grams, was added as a freezing point depressant.
A one-liter three-necked Morton flask was equipped with a mechanical stirrer, Claisen adapter with an ice condenser and gas inlet, and a 250 milliliter pressure-equalizing dropping funnel. This apparatus was dried in an oven overnight at 125° C., assembled hot, and allowed to cool to room temperature in a stream of argon. Lithium metal dispersion was washed free of mineral oil with hexane (2×100 ml), and pentane (1×100 ml). The resultant lithium dispersion was dried in a stream of argon, weighed (12.22 grams, 1.76 moles, 2.80 equivalents), and transferred to the reaction flask with 550 ml of cyclohexane. The mechanical stirrer was set at an agitation rate of 500 RPMs, and the reaction mixture was heated to 80° C. with a hearing mantle. The heat source was removed. The dropping funnel was charged with 94.90 grams (0.63 moles, 1.00 equivalent) of the precursor. The precursor was added dropwise, at an approximate rate of 1.59 ml/min. The reaction temperature was maintained at 70° C. with a dry ice/hexane bath. The total halide feed time was 66 minutes. The reaction mixture was allowed to stir for one hour post-feed and maintained at a temperature of 67.5° C. with a heating mantle. Then isoprene, 22.89 grams ([…], 0.50 equivalents of isoprene) was added at a feed rate of approximately 1.58 ml/min. The temperature was maintained at 62.5° C. during and after the feed. The reaction stirred for two hours before it was cooled to room temperature and filtered through a medium porosity pressure filter. The lithium muds were washed with cyclohexane (2×70 ml). The filtration took 15 minutes. This afforded a clear, light yellow solution, 513.07 g, 650 ml. The sample was stored in 0° C. refrigerator. This solution was transferred to a dry, 1000 ml pear-shaped flask. Some solvent was removed on the rotary evaporator, at full vacuum, with a bath temperature of 30° C. This afforded a light yellow solution, yield=386.01 g, 550 ml.
A one-liter three-necked Morton flask was equipped with a mechanical stirrer, Claisen adapter with an ice condenser and gas inlet, and a 250 milliliter pressure-equalizing dropping funnel. This apparatus was dried in an oven overnight at 125° C., assembled hot, and allowed to cool to room temperature in a stream of argon. Lithium metal dispersion was washed free of mineral oil with hexane (2×100 ml) and pentane (1×100 ml). The resultant lithium dispersion was dried in a stream of argon, weighed (13.90 grams, 2.00 moles, 2.80 equivalents), and transferred to the reaction flask with 400 ml of cyclohexane. The mechanical stirrer was set at an agitation rate of 500 RPMs, and the reaction mixture was heated to 80° C. with a heating mantle. The heat source was removed. The dropping funnel was charged with 107.82 grams (0.72 moles, 1.00 equivalent) of the precursor. The precursor was added dropwise, at an approximate rate of 0.71 ml/min. […]

[3] = Solubility of initiator in cyclohexane with isoprene added as chain extension agent; assay type: physicochemical; conditions: for solubility, Moles Active/Kg. / solubility, Moles Active/Liter: cyclohexane
Method: For example, the solubility of 3-(1,1-dimethylethoxy)-1-propyllithium was investigated in cyclohexane at 0° C., with various amounts of isoprene added as a chain extension agent. The solubility data is collected in the table below:
A similar impact on the solubility of 3-(hexamethyleneimino)-1-propyllithium in cyclohexane was obtained with the addition of limited amounts of isoprene.
A one-liter three-necked Morton flask was equipped with a mechanical stirrer, Claisen adapter with an ice condenser and gas inlet, and a 250 milliliter pressure-equalizing dropping funnel. This apparatus was dried in an oven overnight at 125° C., assembled hot, and allowed to cool to room temperature in a stream of argon. Lithium metal dispersion was washed free of mineral oil with hexane (2×100 ml) and pentane (1×100 ml). The resultant lithium dispersion was dried in a stream of argon, weighed (13.90 grams, 2.00 moles, 2.80 equivalents), and transferred to the reaction flask with 400 ml of cyclohexane. The mechanical stirrer was set at an agitation rate of 500 RPMs, and the reaction mixture was heated to 80° C. with a heating mantle. The heat source was removed. The dropping funnel was charged with 107.82 grams (0.72 moles, 1.00 equivalent) of the precursor. The precursor was added dropwise, at an approximate rate of 0.71 ml/min. The reaction temperature was maintained at 70° C. with a dry ice/hexane bath. The total halide feed time was 162 minutes. The reaction mixture was allowed to stir for one hour post-feed, and maintained at a temperature of 70° C. with a heating mantle. Then isoprene, 98.20 grams ([…], […] of isoprene) was added at a feed rate of approximately 2.55 ml/min. The temperature was maintained at 62.5° C. during and after the feed. The reaction stirred for two hours before it was cooled to room temperature and filtered through a medium porosity pressure filter. The lithium muds were washed with cyclohexane (1×50 ml). The filtration took 15 minutes. This afforded a dark yellow solution, 647.08 grams, 850 ml. The sample was stored in 0° C. refrigerator. This solution was transferred to a dry, 1000 ml pear shaped flask. A majority of the solvent was removed on the rotary evaporator, at full vacuum, with a bath temperature of 30° C. This afforded a mobile, yellow oil, yield=307.92 g, 475 ml.

[4] = 0° C., 0.00 isoprene equivalents
[5] = 0° C., 0.50 isoprene equivalents
[6] = 0° C., 0.75 isoprene equivalents
[7] = 0° C., 1.00 isoprene equivalents
[8] = 0° C., 2.00 isoprene equivalents

Compound: [Li][CH2]CCOC(C)(C)CC [3-(1,1-dimethylpropyloxy)-1-propyllithium]
- maximum solubility in cyclohexane [1]: 0.30 Molar

Compound: [Li][CH2]CCOC(C)(C)C [Example 7, 3-(1,1-Dimethylethoxy)-1-propyllithium]
- crystals on storage ([2]; cyclohexane solution, 0° C. refrigerator, after one day): Crystals were present

Compound: [Li][CH2]CCN1CCCC1 [3-(pyrrolidino)-1-propyllithium]
- precipitation on storage ([2]; cyclohexane solution before chain extension, 14.63 wt. % (1.228 moles/kg), overnight at 20° C.): heavy white precipitate had formed

Compound: [Li][CH2]CCN1CCCCCC1 [Example 1, 3-(Hexamethyleneimino)-1-Propyllithium]
- precipitation on storage ([2]; cyclohexane solution as obtained, refrigerator at −1° C. for twenty-four hours): No solids had precipitated
- precipitation on storage ([2]; cyclohexane solution as obtained, storage overnight at 15° C.): no solids had precipitated

Compound: [Li][CH2]CCN1CCCC1 [Example 4, 3-(Pyrrolidino)-1-Propyllithium]
- precipitation on storage ([2]; cyclohexane solution diluted with heptane, 9.53 wt. %, −2° C. for forty-eight hours): No solids had precipitated

Compound: [Li][CH2]CCN1CCCCCC1 [Example 2, 3-(Hexamethyleneimino)-1-Propyllithium]
- precipitation on storage ([2]; concentrated solution, 30.65 wt. % (2.083 moles/kg), −1° C. for one week): no precipitate was observed

Compound: [Li][CH2]CCN1CCCCCC1 [Example 3, 3-(Hexamethyleneimino)-1-Propyllithium]
- precipitation on storage ([2]; concentrated solution, 35.74 wt. % (2.428 moles/kg), −1° C. for ten days): no precipitate was observed

Compound: [Li][CH2]CCN1CCCC1 [Example 5, 3-(Pyrrolidino)-1-Propyllithium]
- precipitation on storage ([2]; concentrated solution with heptane, 24.14 wt %, −2° C. for four days): no solids had precipitated
- precipitation on storage ([2]; cyclohexane solution, 14.02 wt. %, overnight at −2° C.): no solids had precipitated

Compound: [Li][CH2]CCOC(C)(C)C [3-(1,1-dimethylethoxy)-1-propyllithium]
- solubility, Moles Active/Kg. [3, 4]: 0.36 Moles Active/Kg.
- solubility, Moles Active/Liter [3, 4]: 0.30 Moles Active/Liter
- solubility, Moles Active/Kg. [3, 5]: 1.35 Moles Active/Kg.
- solubility, Moles Active/Liter [3, 5]: 1.06 Moles Active/Liter
- solubility, Moles Active/Kg. [3, 6]: 1.72 Moles Active/Kg.
- solubility, Moles Active/Liter [3, 6]: 1.33 Moles Active/Liter
- solubility, Moles Active/Kg. [3, 7]: 1.84 Moles Active/Kg.
- solubility, Moles Active/Liter [3, 7]: 1.42 Moles Active/Liter
- solubility, Moles Active/Kg. [3, 8]: 1.90 Moles Active/Kg.
- solubility, Moles Active/Liter [3, 8]: 1.46 Moles Active/Liter

Compound: [Li][CH2]CCOC(C)(C)C [Example 10, 3-(1,1-Dimethylethoxy)-1-propyllithium]
- crystals on storage ([2]; concentrated cyclohexane solution, 49.4 wt. % (1.91 mole/kg), storage in 0° C. refrigerator, maximum solubility): crystals were present

Compound: [Li][CH2]C(C)(C)CO[Si](C)(C)C [2,2-dimethyl-3-trimethylsilyloxy-1-propyllithium]
- effect of chain extension on solubility ([3]; addition of less than one equivalent of the chain extension agent): increased the solubility

Compound: [Li][CH2]CCN1CCCCCC1 [3-(hexamethyleneimino)-1-propyllithium]
- solubility, Moles Active/Kg. ([3]; 0.00 isoprene equivalents): 0.20 Moles Active/Kg.
- solubility, Moles Active/Liter ([3]; 0.00 isoprene equivalents): 0.16 Moles Active/Liter
- solubility, Moles Active/Kg. ([3]; 0.13 isoprene equivalents): 0.64 Moles Active/Kg.
- solubility, Moles Active/Liter ([3]; 0.13 isoprene equivalents): 0.51 Moles Active/Liter
- solubility, Moles Active/Kg. ([3]; 0.51 isoprene equivalents): 2.08 Moles Active/Kg.
- solubility, Moles Active/Liter ([3]; 0.51 isoprene equivalents): 1.62 Moles Active/Liter
- solubility, Moles Active/Kg. ([3]; 0.90 isoprene equivalents): 2.43 Moles Active/Kg.
- solubility, Moles Active/Liter ([3]; 0.90 isoprene equivalents): 2.01 Moles Active/Liter
- solubility, Moles Active/Kg. ([3]; 2.00 isoprene equivalents): 2.75 Moles Active/Kg.
- solubility, Moles Active/Liter ([3]; 2.00 isoprene equivalents): 2.28 Moles Active/Liter
- precipitation on storage ([2]; cyclohexane solution, 6.707 wt. % (0.4556 moles/kg), overnight at −5° C.): heavy white precipitate
- maximum solubility in cyclohexane [1]: 0.30 Molar
